From US9908897B2, “Spirocyclic derivatives” (CHRONOS THERAPEUTICS LIMITED, priority 2014, dated 2018)

Legend:
[1] = target: human serotonin transporter (SERT) (Homo sapiens (Human), UniProt P31645); assay: Scintillation Proximity Assay (SPA) competition binding, human SERT; conditions: recombinant hSERT-CHO membranes, [3H]citalopram
[2] = target: human dopamine transporter (DAT) (Homo sapiens (Human), UniProt Q01959); assay: Scintillation Proximity Assay (SPA) competition binding, human DAT; conditions: recombinant hDAT-CHO membranes, [3H]WIN-35,428
Chain of human dopamine transporter (DAT) (Q01959 whole entry): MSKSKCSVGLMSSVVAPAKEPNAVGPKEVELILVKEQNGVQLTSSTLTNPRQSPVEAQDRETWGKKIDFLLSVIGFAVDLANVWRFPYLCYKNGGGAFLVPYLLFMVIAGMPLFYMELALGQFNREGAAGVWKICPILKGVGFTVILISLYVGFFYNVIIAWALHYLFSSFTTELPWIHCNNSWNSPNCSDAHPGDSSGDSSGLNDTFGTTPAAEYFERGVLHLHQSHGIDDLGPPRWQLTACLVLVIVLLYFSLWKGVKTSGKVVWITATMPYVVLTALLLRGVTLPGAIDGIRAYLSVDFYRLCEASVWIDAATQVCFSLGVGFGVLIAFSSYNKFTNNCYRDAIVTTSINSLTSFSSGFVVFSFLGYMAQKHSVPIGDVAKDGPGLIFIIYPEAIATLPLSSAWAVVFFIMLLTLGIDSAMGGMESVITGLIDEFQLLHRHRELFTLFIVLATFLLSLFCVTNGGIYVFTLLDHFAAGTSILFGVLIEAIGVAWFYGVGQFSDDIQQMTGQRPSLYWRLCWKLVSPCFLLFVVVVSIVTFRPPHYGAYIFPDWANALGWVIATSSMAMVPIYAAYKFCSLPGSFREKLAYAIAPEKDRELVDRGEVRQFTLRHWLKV
Summary of the method: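 SPA binding on membranes from CHO cells stably expressing human DAT, with 5 nM [3H]WIN-35,428, WGA-PVT beads and 0.02% BSA in HEPES/NaCl/KCl buffer pH 7.4.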

[3] = target: human norepinephrine transporter (NET) (Homo sapiens (Human), UniProt P23975); assay: Scintillation Proximity Assay (SPA) competition binding, human NET; conditions: recombinant hNET-CHO membranes, [3H]nisoxetine
Chain of human norepinephrine transporter (NET) (P23975 whole entry): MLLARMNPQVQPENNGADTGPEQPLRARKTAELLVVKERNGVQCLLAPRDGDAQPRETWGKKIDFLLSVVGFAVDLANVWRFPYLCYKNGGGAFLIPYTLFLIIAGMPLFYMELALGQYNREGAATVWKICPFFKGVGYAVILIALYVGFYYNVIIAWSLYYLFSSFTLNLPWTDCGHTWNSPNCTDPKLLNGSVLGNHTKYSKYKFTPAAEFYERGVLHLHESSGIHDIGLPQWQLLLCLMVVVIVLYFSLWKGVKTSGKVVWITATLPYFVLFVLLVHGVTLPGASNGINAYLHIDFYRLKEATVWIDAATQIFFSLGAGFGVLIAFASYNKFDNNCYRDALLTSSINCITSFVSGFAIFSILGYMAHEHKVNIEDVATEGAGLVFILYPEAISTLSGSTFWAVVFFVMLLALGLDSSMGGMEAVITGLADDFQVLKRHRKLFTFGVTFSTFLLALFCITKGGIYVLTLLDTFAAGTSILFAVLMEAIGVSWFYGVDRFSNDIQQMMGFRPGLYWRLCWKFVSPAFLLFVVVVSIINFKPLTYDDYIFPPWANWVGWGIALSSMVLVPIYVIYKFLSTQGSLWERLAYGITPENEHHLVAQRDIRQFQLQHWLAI

[4] = target: human ERG potassium channel (hERG) (Homo sapiens (Human), UniProt Q12809); assay: hERG tail current recording, Rapid ICE automated patch-clamp; format: cell-based; conditions: HEK293 cells stably transfected with hERG
Chain of human ERG potassium channel (hERG) (Q12809 whole entry): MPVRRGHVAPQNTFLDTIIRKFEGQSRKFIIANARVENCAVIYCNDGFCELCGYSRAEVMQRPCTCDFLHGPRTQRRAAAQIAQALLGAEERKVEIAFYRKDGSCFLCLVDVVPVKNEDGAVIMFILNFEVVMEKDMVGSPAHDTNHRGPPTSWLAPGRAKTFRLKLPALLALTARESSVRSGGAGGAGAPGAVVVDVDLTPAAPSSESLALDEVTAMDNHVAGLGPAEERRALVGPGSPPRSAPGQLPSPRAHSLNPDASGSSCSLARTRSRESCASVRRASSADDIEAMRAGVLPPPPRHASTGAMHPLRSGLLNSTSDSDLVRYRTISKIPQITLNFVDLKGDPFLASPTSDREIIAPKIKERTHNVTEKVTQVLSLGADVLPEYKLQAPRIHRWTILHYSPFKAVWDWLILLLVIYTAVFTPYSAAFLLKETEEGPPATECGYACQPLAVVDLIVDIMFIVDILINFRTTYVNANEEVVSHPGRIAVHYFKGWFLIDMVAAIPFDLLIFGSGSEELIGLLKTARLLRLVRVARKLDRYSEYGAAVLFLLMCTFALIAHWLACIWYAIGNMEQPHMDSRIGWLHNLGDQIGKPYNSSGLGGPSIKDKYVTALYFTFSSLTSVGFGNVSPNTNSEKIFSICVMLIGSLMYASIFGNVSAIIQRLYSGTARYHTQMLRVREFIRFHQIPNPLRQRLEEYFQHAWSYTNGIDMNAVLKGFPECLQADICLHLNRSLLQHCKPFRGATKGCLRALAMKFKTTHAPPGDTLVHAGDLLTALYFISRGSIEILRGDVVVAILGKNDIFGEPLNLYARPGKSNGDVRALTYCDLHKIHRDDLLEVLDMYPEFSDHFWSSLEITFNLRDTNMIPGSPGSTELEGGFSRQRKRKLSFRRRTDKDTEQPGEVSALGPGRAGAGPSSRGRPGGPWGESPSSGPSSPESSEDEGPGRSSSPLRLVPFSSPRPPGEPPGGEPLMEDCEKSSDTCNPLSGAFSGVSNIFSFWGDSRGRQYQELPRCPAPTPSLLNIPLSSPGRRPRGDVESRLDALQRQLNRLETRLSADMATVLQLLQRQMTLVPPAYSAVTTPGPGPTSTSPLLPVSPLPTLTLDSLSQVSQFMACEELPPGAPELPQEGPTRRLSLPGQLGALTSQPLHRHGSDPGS
Method: Measure of the Effect on hERG Channel by Tail Current Recording Using In Vitro Rapid ICE™
The potency of the compounds of the invention in inhibiting human ERG potassium channel (hERG) tail current is assessed in a recombinant HEK293 cell line stably transfected with hERG cDNA using Rapid ICE™ (Rapid Ion Channel Electrophysiology) assay. Rapid ICE™ is an automated patch-clamp assay utilizing the PatchXpress 7000A system (Molecular Devices Corporation) or the QPatch HTX system (Sophion Bioscience A/S).
Briefly cells are cultivated for 24 to 72 hours before recordings in minimum essential medium supplemented with 10% FBS, 1% non-essential amino acids, 1% sodium pyruvate, 2 mM L-glutamine. The day of the experiment cells are detached with TrypLE and prepared to be loaded on the instrument. For PatchXpress cells are finally resuspended in 150 μl of Extracellular Buffer whereas for QPatch cells are resuspended in 7 ml Serum-Free Media containing 25 mM Hepes and Soybean trypsin inhibitor and immediately placed in the cell storage tank of the machine. The composition of the Extracellular Buffer is (mM): NaCl 137; KCl 4; CaCl2 1.8; MgCl2 1.0; D-glucose 10; N 2 hydroxyethylpiperazine-N′-2-ethanesulfonic acid (HEPES) 10; pH 7.4 with 1 M NaOH. The composition of the pipette solution is (mM): KCl 130; MgCl2 1.0; Ethylene glycol-bis(β-aminoethyl ether)-N,N,N′,N′-tetraacetic acid (EGTA) 5; MgATP 5; HEPES 10; pH 7.2 with 1 M KOH. The voltage protocol includes the following steps: step from −80 mV to −50 mV for 200 ms, +20 mV for 4.8 s, step to −50 mV for 5 s then step to the holding potential of −80 mV. Compounds of the invention are dissolved in DMSO and diluted in Extracellular Buffer to achieve final test concentrations (0.1, 1 and 10 μM) in 0.1% DMSO. The voltage protocol is run and recorded continuously during the experiment. The vehicle, corresponding to 0.1% DMSO in Extracellular Buffer, is then applied for 3 min followed by the test substance in triplicate. The standard combined exposure time is 5 min. The average of tail current amplitude values recorded from 4 sequential voltage pulses is used to calculate for each cell the effect of the test substance by calculating the residual current (% control) compared with vehicle pre-treatment. Data are reported as % inhibition for each concentration tested and IC50 values are estimated using DataXpress or QPatch software. At least two cells are tested, more if results diverge.

Chain of human serotonin transporter (SERT) (P31645 whole entry): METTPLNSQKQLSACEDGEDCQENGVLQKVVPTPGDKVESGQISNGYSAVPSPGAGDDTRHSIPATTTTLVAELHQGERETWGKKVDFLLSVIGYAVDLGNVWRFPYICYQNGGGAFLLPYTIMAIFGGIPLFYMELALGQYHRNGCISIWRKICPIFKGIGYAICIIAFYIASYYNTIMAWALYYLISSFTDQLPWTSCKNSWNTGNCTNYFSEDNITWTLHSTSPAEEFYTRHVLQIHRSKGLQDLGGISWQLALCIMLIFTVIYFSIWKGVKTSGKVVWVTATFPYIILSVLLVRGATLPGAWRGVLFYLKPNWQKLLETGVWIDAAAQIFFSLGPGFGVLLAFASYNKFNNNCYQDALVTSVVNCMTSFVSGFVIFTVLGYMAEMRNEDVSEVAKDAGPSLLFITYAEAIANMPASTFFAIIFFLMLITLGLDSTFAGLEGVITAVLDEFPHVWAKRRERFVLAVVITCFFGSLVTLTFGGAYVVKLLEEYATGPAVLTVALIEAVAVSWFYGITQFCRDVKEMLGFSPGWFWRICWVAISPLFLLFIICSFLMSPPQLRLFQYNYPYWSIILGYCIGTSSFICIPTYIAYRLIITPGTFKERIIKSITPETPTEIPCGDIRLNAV

| SMILES | pIC50 SERT [1] | pIC50 DAT [2] | pIC50 NET [3] | pIC50 hERG [4] | IC50 [1] |
| --- | --- | --- | --- | --- | --- |
| Fc1cccc(Oc2cc(F)c(F)cc2N2CCC3(CCNCC3)CC2)c1 [Example 82, 3-[4,5-difluoro-2-(3-fluorophenoxy)phenyl]-3,9-diazaspiro[5.5]undecane] | 8.00 | 8.14 | 6.10 | 6.0 | – |
| Cl.FC(F)(F)c1cc(Oc2ccccc2)nc(N2CCC3(CC2)CNCCO3)n1 [Example 55, 9-[4-phenoxy-6-(trifluoromethyl)pyrimidin-2-yl]-1-oxa-4,9-diazaspiro[5.5]undecane hydrochloride] | 6.14 | 8.19 | 6.12 | 5.7 | – |
| Fc1cccc(Oc2cc(F)cc(N3CCC4(CC3)CNCCO4)c2)c1 [Example 8, 9-[3-fluoro-5-(3-fluorophenoxy)phenyl]-1-oxa-4,9-diazaspiro[5.5]undecane] | 7.10 | 8.25 | 6.90 | 6.3 | – |
| Fc1cccc(Oc2cc(F)c(F)cc2N2CCC3(CNCCO3)C2)c1 (stereo not shown) [Example 83, 2-[4,5-difluoro-2-(3-fluorophenoxy)phenyl]-6-oxa-2,9-diazaspiro[4.5]decane] | 6.40 | 7.24 | 6.76 | 6.2 | – |
| Fc1cccc(Oc2cc(F)cc(N3CCC4(CCNC4)CC3)c2)c1 [Example 92, 8-[3-fluoro-5-(3-fluorophenoxy)phenyl]-2,8-diazaspiro[4.5]decane] | 7.37 | 8.84 | 7.33 | 6.2 | – |
| Fc1cccc(Oc2cc(F)c(F)cc2N2CCC3(CCNCC34OCCO4)C2)c1 (stereo not shown) [Example 93, 8-[4,5-difluoro-2-(3-fluorophenoxy)phenyl]-1,4-dioxa-8,13-diazadispiro[4.0.4^6.4^5]tetradecane] | 6.90 | 8.44 | 6.64 | 6.0 | – |
| COc1cccc(Oc2cc(C)nc(N3CCC4(CC3)CNCCO4)n2)c1.Cl [Example 49, 9-[4-(3-methoxyphenoxy)-6-methylpyrimidin-2-yl]-1-oxa-4,9-diazaspiro[5.5]undecane hydrochloride] | 4.67 | 6.92 | 5.45 | 5.5 | – |
| Fc1cccc(Oc2ccccc2N2CCC3(CC2)CNCCO3)c1 [Example 4, 9-[2-(3-fluorophenoxy)phenyl]-1-oxa-4,9-diazaspiro[5.5]undecane] | 6.24 | 7.31 | 6.13 | 5.8 | – |
| Cc1cccc(Oc2cc(C)nc(N3CCC4(CC3)CNCCO4)n2)c1.Cl [Example 45, 9-[4-methyl-6-(3-methylphenoxy)pyrimidin-2-yl]-1-oxa-4,9-diazaspiro[5.5]undecane hydrochloride] | 4.83 | 7.59 | 5.54 | 5.7 | – |
| N#Cc1cc(Oc2ccccc2)cc(N2CCC3(CC2)CNCCO3)c1 [Example 25, 3-{1-oxa-4,9-diazaspiro[5.5]undecan-9-yl}-5-phenoxybenzonitrile] | 7.43 | 8.66 | 7.19 | 6.1 | – |
| Fc1cccc(Oc2cccc(N3CCC4(CC3)CNCCO4)c2)c1 [Example 7, 9-[3-(3-fluorophenoxy)phenyl]-1-oxa-4,9-diazaspiro[5.5]undecane] | 5.99 | 7.54 | 6.33 | 5.8 | – |
| Cc1cc(Oc2ccccc2)nc(N2CCC3(CC2)CNCCO3)n1.Cl [Example 43, 9-(4-methyl-6-phenoxypyrimidin-2-yl)-1-oxa-4,9-diazaspiro[5.5]undecane hydrochloride] | 4.42 | 8.01 | 6.11 | 5.7 | – |
| Cl.N#Cc1cc(Oc2cccc(F)c2)nc(N2CCC3(CC2)CNCCO3)n1 [Example 62, 6-(3-fluorophenoxy)-2-{1-oxa-4,9-diazaspiro[5.5]undecan-9-yl}pyrimidine-4-carbonitrile hydrochloride] | 5.83 | 8.01 | 6.36 | 6.5 | – |
| O=C1NCC2(CCN(c3nc(Oc4cccc(F)c4)cc(C(F)(F)F)n3)CC2)O1 [Example 89, 8-[4-(3-fluorophenoxy)-6-(trifluoromethyl)pyrimidin-2-yl]-1-oxa-3,8-diazaspiro[4.5]decan-2-one] | 4.89 | 7.73 | 5.66 | 5.7 | – |
| Cc1cc(Oc2cccc(C(F)(F)F)c2)nc(N2CCC3(CC2)CNCCO3)n1.Cl [Example 48, 9-{4-methyl-6-[3-(trifluoromethyl)phenoxy]pyrimidin-2-yl}-1-oxa-4,9-diazaspiro[5.5]undecane hydrochloride] | 5.58 | 6.50 | 5.48 | 5.6 | – |
| Fc1cccc(Oc2cccc(N3CCC4(CC3)CNCCO4)c2F)c1 [Example 19, 9-[2-fluoro-3-(3-fluorophenoxy)phenyl]-1-oxa-4,9-diazaspiro[5.5]undecane] | 5.99 | 8.64 | 7.01 | 5.4 | – |
| Cl.Fc1cccc(Oc2cc(C(F)(F)F)nc(N3CCC4(CC3)CNCC(F)(F)O4)n2)c1 [Example 70, 2,2-difluoro-9-[4-(3-fluorophenoxy)-6-(trifluoromethyl)pyrimidin-2-yl]-1-oxa-4,9-diazaspiro[5.5]undecane hydrochloride] | – | 6.65 | 5.17 | 5.0 | > 100 µM |
| Fc1cccc(Oc2cc(C(F)(F)F)nc(N3CCC4(CNCCC45OCCO5)C3)n2)c1 (stereo not shown) [Example 87, 8-[4-(3-fluorophenoxy)-6-(trifluoromethyl)pyrimidin-2-yl]-1,4-dioxa-8,12-diazadispiro[4.0.4^6.4^5]tetradecane] | 5.43 | 8.67 | 6.82 | 6.0 | – |
| Cl.Fc1cccc(Oc2cncc(N3CCC4(CC3)CNCCO4)n2)c1 [Example 41, 9-[6-(3-fluorophenoxy)pyrazin-2-yl]-1-oxa-4,9-diazaspiro[5.5]undecane hydrochloride] | 6.02 | 7.44 | 5.33 | 5.9 | – |
